{"source": "patent US5437980A", "about": "“Phenanthridium dye staining of nucleic acids in living cells” (Molecular Probes, Inc., priority 1993, dated 1995)", "key": {"[1]": {"tested_on": "free-living ciliate and flagellate protozoans", "experiment": "Staining of protozoa (Example 7)", "assay_type": "cell-based", "conditions": "1 μL of 10 mM dye in 1 mL culture, 10 min, ambient temperature", "experimental": "1 μL of 10 mM the 5-DAPP/LIVE dye stock is added to 1 mL of protozoan culture. The medium is incubated for 10 min at ambient temperature. 15 μL of this preparation is mounted with dye between a coverglass and the slide. Using this procedure, the nuclei of most cells of the free-living ciliate and flagellate protozoans are stained under these conditions."}, "[2]": {"tested_on": "Saccharomyces", "experiment": "Staining of yeast (Example 5)", "assay_type": "cell-based", "conditions": "10 μM dye, 30 min, 37° C.", "experimental": "Yeast cells are washed by centrifugation and then resuspended in a solution of 2% glucose and 10 mM Na-HEPES, pH 7.4 to a cell density of between 5×10^5 and 2×10^6 cells/mL optical density at 410 nm (previously calibrated with YPD agar plate colony counts). Sufficient 10 mM stock solution of the 5-DAPP/LIVE dye in DMSO is added to effect a final concentration of 10 μM of the dye in the medium. The suspension is incubated for 30 min at 37° C. then 15 μL are placed between a coverglass and the microscope slide. The cellular fluorescence is observed using fluorescein (long-pass emission) or rhodamine filter sets."}, "[3]": {"tested_on": "gram-positive bacteria", "conditions": "mild conditions; application Ser. No. 08/047,683; cited from earlier work"}, "[4]": {"tested_on": "gram-negative bacteria", "conditions": "mild conditions; application Ser. No. 08/047,683; cited from earlier work"}, "[5]": {"tested_on": "living cells", "experiment": "Entry into / staining of living cells, general", "assay_type": "cell-based", "conditions": "general summary, several types of cells"}, "[6]": {"tested_on": "Bacillus cereus", "experiment": "Relative rate and extent of dye uptake into living Bacillus cereus (Example 2, FIG. 1)", "assay_type": "cell-based", "conditions": "2 μM dye, 23° C., 488 nm excitation, 600 nm emission", "experimental": "FIG. 1. Relative Uptake of Dyes into Living Cells. Uptake of ethidium, butidium, hexidium and octidium by Bacillus cereus as described in Example 2.\nBacillus cereus is grown in nutrient broth to log phase, washed by centrifugation, and resuspended in water to a density of 5×10^6 cfu/mL (as determined in Example 1). One centimeter pathlength acrylic cuvettes containing 3 mL of cell suspension are placed in a fluorescence spectrophotometer equipped with a temperature regulated cuvette holder and magnetic stirrer. The suspensions are brought to 23° C. prior to dye addition. To a cuvette of 3 mL bacteria suspension is added 3 μL of 2 mM dye stock solutions in DMSO to give a final dye concentration of 2 μM to produce the maximum attainable fluorescence/cell at the 600 nm emission wavelength (determined as in Example 1). The peak fluorescence excitation and emission wavelengths are determined by scanning the spectrum of the dye in suspensions of Bacillus cereus incubated for 30 min with the dye. Fluorescence intensity of the suspensions is measured using 488 nm excitation and 600 nm emission wavelengths. Sampling of fluorescence is carried out at 5 or 10 Hz until the fluorescence signal appears to stabilize."}, "[7]": {"tested_on": "peripheral blood lymphocytes", "experiment": "Staining of peripheral blood lymphocytes, fluorometer (Example 11)", "assay_type": "cell-based, goat", "conditions": "on the scale of seconds", "experimental": "Peripheral blood lymphocytes (PBL) are isolated from fresh heparinized goat blood and resuspended in buffer consisting of 135 mM NaCl, 5 mM KCl, 20 mM HEPES, 1 mM CaCl2, 1 mM MgCl2, pH 7.4 (HBSS+). The cells are resuspended to 10^6 mL (as determined by direct microscopic count using a standard hemocytometer) in a final volume of 3 mL in the above buffer in a quartz cuvette. 5-DAPP/LIVE dye stocks are prepared to final concentrations of 2 mM in DMSO. 3 μL of the octidium dye stock solution is injected into the cuvette to a final concentration of 2 μM. In a fluorometer, the sample is excited at 520 nm and fluorescence emission is monitored at 600 nm over the time required for the fluorescence signal to become stable. Hexidium, butidium and ethidium bromide are injected into separate samples of PBL to determine the relative rates of uptake for these stains. The volume of dye solution added to the cuvette is corrected by a factor relating the absorbance of the dye to the absorbance of a 2 mM octidium solution."}, "[8]": {"tested_on": "mushroom spores", "experiment": "Staining of mushroom spores by fluorescence microscopy (Example 4)", "assay_type": "cell-based, agaric", "conditions": "10-20 μM dye, 30 min, room temperature", "experimental": "Spores are rinsed from the gills on the underside of the cap of an agaric using a stream of distilled water. The spores are concentrated by centrifugation for 30 sec at 10,000 rpm in a microcentrifuge then a minimal volume of a 10-20 μM solution of the 5-DAPP/LIVE dye in distilled water is added. The suspension is incubated with the dye for 30 min at room temperature then a 15 μL aliquot of the suspension is mounted on between a coverglass and the slide for viewing in the presence of the dye. The cellular fluorescence is observed on a Zeiss Axioplan fluorescence microscope using fluorescein (long:pass emission) or rhodamine filter sets."}, "[9]": {"tested_on": "trypanosome", "conditions": "Watkins, J. CHEM SOC. 3059 (1952); Watkins & Woolfe; cited from earlier work"}, "[10]": {"tested_on": "living cells", "conditions": "intact cell membrane; background; cited from earlier work"}, "[11]": {"tested_on": "epidermal tissue of the bulb, Alium spp.", "experiment": "Staining of plant cell tissue (Example 6)", "assay_type": "cell-based", "conditions": "10 μM dye, 30 min, room temperature", "experimental": "A small section of tissue from the bulb is removed with a razor blade. 0.5 mL of a 10 μM solution of the 5-DAPP/LIVE dye in distilled water is dispensed into a small glass dish. The epidermal tissue is cut into sections and placed in the dye solution. The tissue is stained for 30 min at room temperature in the dark then the tissue preparation is mounted in the presence of the dye between a coverglass and the slide."}}}
{"smiles": "CC[n+]1c(-c2ccccc2)c2cc(N)ccc2c2ccc(N)cc21", "note": "[ethidium, reference compound]", "values": [{"measurement": "staining of nuclei of protozoans", "setting": "[1]", "value": "octidium which is better than butidium and ethidium"}, {"measurement": "staining distribution and intensity", "setting": "[2]", "value": "stains all yeast slightly with a pale red nucleus and hazy red cytoplasm"}, {"measurement": "staining of live gram-positive bacteria", "setting": "[3]", "value": "does not effectively stain"}, {"measurement": "staining of live gram-negative bacteria", "setting": "[4]", "value": "does not effectively stain"}, {"measurement": "entry into / staining of live cells", "setting": "[5]", "value": "does not enter most live cells easily"}, {"measurement": "rate of dye loading", "setting": "[6]", "value": "increases with carbon chain length"}, {"measurement": "distribution of dye into nucleus of lymphocytes", "setting": "[7]", "value": "not ethidium"}, {"measurement": "fraction of spores entered", "setting": "[8]", "value": "less than 10%"}, {"measurement": "trypanocidal effectiveness / therapeutic potential", "setting": "[9]", "value": "superior to that of other 5-DAPP derivatives with longer alkyl chains"}, {"measurement": "suitability for staining of nucleic acids in living cells", "setting": "[10]", "value": "usually not suitable for staining of nucleic acids in living cells in which the cell membrane is intact"}, {"measurement": "cell wall / surface staining", "setting": "[11]", "value": "more hazy surface staining"}]}
